Data from patent publication US20250352539A1, “COMBINATION THERAPY FOR TREATING CANCER” (AstraZeneca AB, priority 2022, published 2025).
Values joined by “and” are separate entries in the source; they are usually repeats but may differ in a detail not shown here. Equal entries are not always repeated. Where two headings read alike, the source gives them in different places.

How the values were obtained:
Assay in all cases: 144-hour CellTiter-Glo 2.0 proliferation assay
Format in all cases: cell-based
[1] = test system: KP-3; conditions: KP-3 pancreatic; monotherapy; read-out: mono GI50
Description: (§1) Combination profiling was carried out in a panel of cancer cell lines utilising Horizon Discovery's High Throughput Screening platform.
(§2) Cell lines that have been preserved in liquid nitrogen are thawed and expanded in growth media (see Table 1). Once cells have reached expected doubling times, screening begins. Cells are seeded in 25 μl of growth media in black 384-well tissue culture treated plates (seeding density as noted in Table 11).
(§3) Cells are equilibrated in assay plates via centrifugation and placed at 37° C. 5% CO2 for twenty-four hours before treatment.
(§4) Compounds are transferred to assay plates using and Echo acoustic liquid handling system. 25 nl of each compound was added at the appropriate concentration for all combination dose points. Therefore, final assay volume would be […]. Assay plates are incubated with compound for 6 days and are then analysed using CellTiter-Glo 2.0. All data points are collected via automated processes and are subject to quality control and analysed.
(§5) Growth Inhibition (GI) is reported as a measure of cell growth. The GI percentages are calculated by applying the following test and equation: […]
(§6) where T is the signal measure for a test article, V is the untreated/vehicle-treated control measure, and Vo is the untreated/vehicle control measure at time zero (also colloquially referred as T0 plates). This formula is derived from the Growth Inhibition calculation used in the National Cancer Institute's NCI-60 high throughput screen. For the purposes of this report, all data analysis was performed in Growth Inhibition (except where noted).

[2] = test system: LoVo; conditions: Homo sapiens; LoVo colorectal; monotherapy; read-out: mono GI50
Description: as §1, §2, §3, §4, §5, §6

[3] = test system: OVSAHO; conditions: Homo sapiens; OVSAHO ovarian; monotherapy; read-out: mono GI50
Description: as §1, §2, §3, §4, §5, §6

[4] = test system: LMSU; conditions: LMSU gastric; monotherapy; read-out: mono GI50
Description: as §1, §2, §3, §4, §5, §6

[5] = test system: OVK18; conditions: OVK18 ovarian; monotherapy; read-out: mono GI50
Description: as §1, §2, §3, §4, §5, §6

[6] = test system: GCIY; conditions: Homo sapiens; GCIY gastric; monotherapy; read-out: mono GI50
Description: as §1, §2, §3, §4, §5, §6

[7] = test system: SW837; conditions: Homo sapiens; SW837 colorectal; monotherapy; read-out: mono GI50
Description: as §1, §2, §3, §4, §5, §6

[8] = test system: Caov-3; conditions: Homo sapiens; Caov-3 ovarian; monotherapy; read-out: mono GI50
Description: as §1, §2, §3, §4, §5, §6

[9] = test system: HPAF-II; conditions: Homo sapiens; HPAF-II pancreatic; monotherapy; read-out: mono GI50
Description: as §1, §2, §3, §4, §5, §6

[10] = test system: PSN1; conditions: monotherapy, read-out: mono GI50
Description: as §1, §2, §3, §4, §5, §6

[11] = test system: NCI-SNU-1; conditions: NCI-SNU-1 gastric; monotherapy; read-out: mono GI50
Description: as §1, §2, §3, §4, §5, §6

[12] = test system: RKO; conditions: Homo sapiens; RKO colorectal; monotherapy; read-out: mono GI50
Description: as §1, §2, §3, §4, §5, §6

[13] = test system: OVCAR-3; conditions: Homo sapiens; OVCAR-3 ovarian; monotherapy; read-out: mono GI50
Description: as §1, §2, §3, §4, §5, §6

[14] = test system: PA-1; conditions: Homo sapiens; PA-1 ovarian; monotherapy; read-out: mono GI50
Description: as §1, §2, §3, §4, §5, §6

[15] = test system: KE-39; conditions: KE-39 gastric; monotherapy; read-out: mono GI50
Description: as §1, §2, §3, §4, §5, §6

[16] = test system: BxPC-3; conditions: monotherapy, read-out: mono GI50
Description: as §1, §2, §3, §4, §5, §6

[17] = test system: Gp2D; conditions: Gp2D colorectal; monotherapy; read-out: mono GI50
Description: as §1, §2, §3, §4, §5, §6

[18] = test system: KURAMOCHI; conditions: KURAMOCHI ovarian; monotherapy; read-out: mono GI50
Description: as §1, §2, §3, §4, §5, §6

[19] = test system: MIA PaCa-2; conditions: monotherapy, read-out: mono GI50
Description: as §1, §2, §3, §4, §5, §6

[20] = test system: HCT-116; conditions: Homo sapiens; HCT-116 colorectal; monotherapy; read-out: mono GI50
Description: as §1, §2, §3, §4, §5, §6

[21] = test system: TOV-21G; conditions: Homo sapiens, TOV21G; TOV-21G ovarian; monotherapy; read-out: mono GI50
Description: as §1, §2, §3, §4, §5, §6

[22] = test system: JHOM-1; conditions: JHOM-1 ovarian; monotherapy; read-out: mono GI50
Description: as §1, §2, §3, §4, §5, §6

[23] = test system: MKN74; conditions: Homo sapiens, MKN-74; MKN74 gastric; monotherapy; read-out: mono GI50
Description: as §1, §2, §3, §4, §5, §6

[24] = test system: SNU-668; conditions: SNU668; SNU-668 gastric; monotherapy; read-out: mono GI50
Description: as §1, §2, §3, §4, §5, §6

[25] = test system: HGC-27; conditions: Homo sapiens; HGC-27 gastric; monotherapy; read-out: mono GI50
Description: as §1, §2, §3, §4, §5, §6

[26] = test system: HT-115; conditions: HT115; HT-115 colorectal; monotherapy; read-out: mono GI50
Description: as §1, §2, §3, §4, §5, §6

[27] = test system: AGS; conditions: Homo sapiens; AGS gastric; monotherapy; read-out: mono GI50
Description: as §1, §2, §3, §4, §5, §6

[28] = test system: IM-95; conditions: Homo sapiens, IM95; IM-95 gastric; monotherapy; read-out: mono GI50
Description: as §1, §2, §3, §4, §5, §6

[29] = test system: COV362; conditions: COV362 ovarian; monotherapy; read-out: mono GI50
Description: as §1, §2, §3, §4, §5, §6

Structure (SMILES): C[C@@H]1COCCN1c1cc(C2([S@](C)(=N)=O)CC2)nc(-c2ccnc3[nH]ccc23)n1 [AZD6738, 4-{4-[(3R)-3-Methylmorpholin-4-yl]-6-[1-((R)—S-methylsulfonimidoyl)cyclopropyl]pyrimidin-2-yl}-1H-pyrrolo[2,3-b]-pyridine]
- GI50 [1]: 1280 nM and 1900 nM
- GI50 [2]: 401 nM
- GI50 [3]: 581 nM
- GI50 [4]: 1710 nM
- GI50 [5]: 921 nM
- GI50 [6]: 179 nM
- GI50 [7]: 924 nM
- GI50 [8]: 197 nM
- GI50 [9]: 1030 nM
- GI50 ([10]; Homo sapiens, PSN1, PSN1 pancreatic): 858 nM
- GI50 ([10]; PSN1 pancreatic): 746 nM
- GI50 [11]: 1090 nM
- GI50 [12]: 1020 nM
- GI50 [13]: 370 nM
- GI50 [14]: 1220 nM
- GI50 [15]: 1470 nM
- GI50 ([16]; BxPC-3 pancreatic): 1090 nM
- GI50 ([16]; Homo sapiens, BXPC-3, BxPC-3 pancreatic): 1080 nM
- GI50 [17]: 501 nM
- GI50 [18]: 728 nM
- GI50 ([19]; Homo sapiens, MIA PaCa-2, MIA PaCa-2 pancreatic): 1200 nM
- GI50 ([19]; MIA PaCa-2 pancreatic): 1930 nM
- GI50 [20]: 687 nM
- GI50 [21]: 374 nM
- GI50 [22]: 939 nM
- GI50 [23]: 741 nM
- GI50 [24]: 291 nM
- GI50 [25]: 1150 nM
- GI50 [26]: 1610 nM
- GI50 [27]: 1210 nM
- GI50 [28]: 250 nM
- GI50 [29]: 1060 nM
